Laboratory results as given in patent publication US12024507B2, “Compounds as GLP-1R agonists” (Terns Pharmaceuticals, Inc., priority 2021, dated 2024).

Tests used:
human GLP-1R receptor = biological target: T1, human GLP-1R receptor (Homo sapiens, UniProt P43220); assay: GLP-1R cell assay (cAMP TR-FRET, low expression CHO-K1_hGLP-1Rlow_clone10 cell line); type: cell-based; details: CHO-K1_hGLP-1Rlow_clone10 cells, relative to control GLP-1 peptide agonist, read-out: GLP1 EC50
T1 construct: expressed in transfected cells
Experimental: Stable cell lines expressing high and low GLP-1R surface expression were generated in CHO-K1 cells transfected (Fugene 6) with a puromycin selectable DNA plasmid encoding human GLP-1R receptor (accession number: NM_002062.5) under control of an EF1A promoter. Transfected cells were seeded into 24-well plates (9,000 cells/well) containing complete medium and incubated in a humidified incubator at 37° C. with 5% carbon dioxide. After overnight incubation, medium was replaced with complete medium supplemented with puromycin (6 μg/mL) and refreshed every 2-3 days to select for stably transfected cells. Individual pools of selected cells were expanded prior to analysis for responsiveness to GLP-1 control peptide using a TR-FRET assay to detect cAMP (LANCE Ultra cAMP Assay, Perkin Elmer). Briefly, cells were collected in Versene solution, plated in 384-well plates (1,000 cells/well) and combined with serially diluted GLP-1R control peptide (10 nL) using an acoustic dispenser (ECHO). Plates were incubated for 30 minutes at 25° C. prior to the addition of EU-cAMP tracer (5 μL) and Ulight-anti-cAMP (5 μL) reagents to each well, followed by 15 minutes incubation at 25° C. TR-FRET signal was detected using an EnVision Multimode Plate Reader (excitation=320 nm; emission=615 and 655 nm). Dose-response curves were used to generate EC50 values as a measure of responsiveness to the GLP-1R control peptide. Selected cell lines were monitored for responsiveness over multiple passages to ensure stability. […] Briefly, GLP-1R expression was analyzed by flow cytometry using a fluorescein-labeled Exendin-4 peptide fluorescent probe (FLEX). Cells were harvested in Versene solution and washed 3-times with PBS+0.5% BSA before incubation with FLEX reagent (10 μM) for 2 hours at room temperature. After incubation, cells were washed 3-times in PBS+0.5% BSA before final resuspension in PBS prior to analysis by flow cytometry to measure FLEX mean fluorescence intensity (MFI) as a measure of GLP-1R expression on the cell surface.
For compound testing in the CHO-K1_hGLP-1Rlow_clone10 cell line, cells were seeded in 384-well plates (1,000 cells/well). Test compounds were serially diluted in DMSO (10-point, 3-fold dilution), added to wells using an ECHO dispenser (10 nL/well) and plates were centrifuged for 1 min and agitated for 2 min at room temperature prior to 30-minute incubation at 25° C. After incubation, Eu-cAMP (5 μL) and Ulight-anti-cAMP (5 μL) reagents were added to each well, followed by centrifugation for 1 minute, agitation for 2 minutes at room temperature, and final incubation of the plates at 25° C. for 15 minutes. Plates were read using an EnVision microplate reader (excitation=320 nm; emission=615 and 655 nm). Dose-response curves were generated from duplicate wells based on percent activation calculated relative to a control GLP-1 peptide agonist that was run in parallel. EC50 values were determined by fitting percent activation as a function of compound concentration using the Hill equation (XLfit).
The compounds tested were compound samples prepared according to the General Procedures described in the Examples section.

[1] = Metabolic stability in human hepatocytes; type: in vitro ADME; details: cryopreserved hepatocytes, 1×10^6 cells/mL; for CLint scaled at 1 μM: intrinsic clearance; for half-life at 1 μM: read-out: Human T1/2
Experimental: (§1) Test compounds were incubated in rat and human hepatocytes and stability was assessed from the substrate […] approach. Test compounds were dissolved in dimethyl sulfoxide (DMSO) to create a 10 mM Stock, and then further diluted to create a 1000×Working Stock of 1 mM with DMSO in 96-well plates for test compounds and the positive control (midazolam). Vials containing cryopreserved hepatocytes were removed from the liquid nitrogen tank and immediately immersed in a 37° C. water bath. The vials were shaken gently until the contents had thawed and were then immediately emptied into 48 mL of pre-warmed HT Medium in a 50 mL conical tube. Cells remaining in the vial were resuspended with 1.0 mL of pre-warmed HT Medium and added to the conical tube. The tube was capped and then gently inverted several times to resuspend the hepatocytes. The cell suspension was centrifuged at 50×g at room temperature for 5 minutes and the supernatant discarded. The cell pellet was loosened by gently swirling the centrifuge tube and was re-suspended in 4 mL of warm Dulbecco's Modified Eagle medium (DMEM). Cell density was determined by a cell counter by Nexcelom, and DMEM medium was added to obtain a target density of 1×10^6 cells/mL. The assay was carried out in 96-well microtiter plates. Test Compounds were incubated at 1 μM with 1×10^6 cells/mL hepatocytes in DMEM for 0, 30, 60, 120 and 240 minutes. The incubation was carried out with gentle shaking at 37° C. under a humid atmosphere of 95% air/5% CO2. The volume of the incubation mixture was 37 μL with a final 0.1% DMSO. At each of the time points, the incubation was stopped by adding 150 μL quenching solution (100% acetonitrile, 0.1% formic acid containing bucetin as an internal standard for positive ESI mode). Subsequently, the mixtures were vortexed for 20 min and centrifuged at 4,000 RPM at 10° C. The supernatant (80 μL) was transferred to a clean 96-well plate and analyzed by LC-MS/MS. Midazolam at 1 μM with a final 0.1% DMSO was included as a positive control to verify assay performance. The percent parent remaining, intrinsic and predicted hepatic clearance and t1/2 were calculated. All samples were analyzed by LC-MS/MS using an AB Sciex API 4000 instrument, coupled to a Shimadzu LC-20AD LC Pump system. Separation was achieved using a Waters Atlantis T3 dC18 reverse phase HPLC column (20 mm×2.1 mm) at a flow rate of 0.5 mL/min. The mobile phase consisted of 0.1% formic acid in water (solvent A) and 0.1% formic acid in 100% acetonitrile (solvent B). Elution conditions are detailed below.
(§2) The ion optics of each test compound were optimized for their declustering potential (DP), […] (CE), collision-cell exit potential (CXP) and used in a selected ion monitoring experiment in the positive ion mode. The peak area ratio of each test compound to internal standard was then evaluated for stability. The extent of metabolism was calculated based on the disappearance of the test compound, compared to its initial concentration. The initial rates of clearance of the test compound were calculated using the linear regression plot of semi-log % remaining of the compound versus time.
(§3) The predicted hepatic clearance (CLhep) was calculated using the well stirred method with the following formula with CLint(in vivo) normalized based on liver weight: CLint(in vivo)=CLint×Hepatocellularity×liver weight CLhep predicted=(CLint(in vivo)×Qliver)/(CLint(in vivo)+Qliver) Where Qliver ((ml/min/kg) is Liver Blood Flow
(§4) The relevant physiological parameters of liver weight, blood flow, and hepatocellularity for various species are listed below:
(§5) Results are presented in the Table B3 below for the intrinsic clearance (mL/min/kg) and half-life (t1/2).

[2] = Metabolic stability in rat hepatocytes; type: in vitro ADME; details: cryopreserved hepatocytes, 1×10^6 cells/mL; for CLint scaled at 1 μM: intrinsic clearance; for half-life at 1 μM: read-out: Rat T1/2
Experimental: as §1, §2, §3, §4, §5

T1 sequence (P43220 24-463): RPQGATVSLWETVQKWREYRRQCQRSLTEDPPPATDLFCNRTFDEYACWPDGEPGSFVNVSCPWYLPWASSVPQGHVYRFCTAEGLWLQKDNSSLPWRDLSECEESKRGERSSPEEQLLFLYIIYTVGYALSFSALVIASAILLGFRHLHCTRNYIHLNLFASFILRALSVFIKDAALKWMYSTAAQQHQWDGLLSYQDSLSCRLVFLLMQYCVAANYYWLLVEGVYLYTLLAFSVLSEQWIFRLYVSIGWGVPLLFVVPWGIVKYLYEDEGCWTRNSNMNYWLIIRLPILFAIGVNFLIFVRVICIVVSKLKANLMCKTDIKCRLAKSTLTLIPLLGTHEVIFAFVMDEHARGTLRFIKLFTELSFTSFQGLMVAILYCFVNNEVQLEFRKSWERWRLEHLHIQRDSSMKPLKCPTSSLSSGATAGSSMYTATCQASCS

EC50 (human GLP-1R receptor) [nM] | Structure (SMILES) | other results
5940 | N#Cc1ccc(COc2cccc(N3CCN(Cc4nc5ccc(C(=O)NCC(F)(F)F)cc5n4Cc4ncco4)CC3)n2)c(F)c1 [Compound 3, 2-((4-(6-((4-cyano-2-fluorobenzyl)oxy)pyridin-2-yl)piperazin-1-yl)methyl)-1-(oxazol-2-ylmethyl)-N-(2,2,2-trifluoroethyl)-1H-benzo[d]imidazole-6-carboxamide] | –
231 | CS(=O)(=O)NC(=O)c1ccc2nc(CN3CCN(c4cccc(OCc5ccc(C#N)cc5F)n4)CC3)n(Cc3ncco3)c2c1 [Compound 4, 2-((4-(6-((4-cyano-2-fluorobenzyl)oxy)pyridin-2-yl)piperazin-1-yl)methyl)-N-(dioxo-l5-sulfaneyl)-1-(oxazol-2-ylmethyl)-1H-benzo[d]imidazole-6-carboxamide] | –
45.4 | N#Cc1ccc(COc2cccc(C3CCN(Cc4nc5ccc(-c6nc(=O)o[nH]6)cc5n4C[C@@H]4CCO4)CC3)n2)c(F)c1 [Compound 5, (S)-3-fluoro-4-(((6-(1-((1-(oxetan-2-ylmethyl)-6-(5-oxo-2,5-dihydro-1,2,4-oxadiazol-3-yl)-1H-benzo[d]imidazol-2-yl)methyl)piperidin-4-yl)pyridin-2-yl)oxy)methyl)benzonitrile] | –
10.6 | O=c1cc(-c2ccc3nc(CN4CCC(c5cccc(OCc6ccc(Cl)cc6F)n5)CC4)n(C[C@@H]4CCO4)c3c2)o[nH]1 [Compound 6, (S)-5-(2-((4-(6-((4-chloro-2-fluorobenzyl)oxy)pyridin-2-yl)piperidin-1-yl)methyl)-1-(oxetan-2-ylmethyl)-1H-benzo[d]imidazol-6-yl)isoxazol-3(2H)-one] | –
148 | O=c1nc(-c2ccc3nc(CN4CCN(c5cccc(OCc6ccc(Br)cc6F)n5)CC4)n(C[C@@H]4CCO4)c3c2)[nH]o1 [Compound 7, (S)-3-(2-((4-(6-((4-bromo-2-fluorobenzyl)oxy)pyridin-2-yl)piperazin-1-yl)methyl)-1-(oxetan-2-ylmethyl)-1H-benzo[d]imidazol-6-yl)-1,2,4-oxadiazol-5(2H)-one] | –
461 | N#Cc1ccc(COc2cccc(C3CCN(Cc4nc5ccc(C6=CC(=O)NC6=O)cc5n4Cc4cncs4)CC3)n2)c(F)c1 [Compound 9, 4-(((6-(1-((6-(2,5-dioxo-2,5-dihydro-1H-pyrrol-3-yl)-1-(thiazol-5-ylmethyl)-1H-benzo[d]imidazol-2-yl)methyl)piperidin-4-yl)pyridin-2-yl)oxy)methyl)-3-fluorobenzonitrile] | –
118 | N#Cc1ccc(COc2cccc(C34CCN(Cc5nc6ccc(-c7nnn[nH]7)cc6n5Cc5cncs5)CC3C4)n2)c(F)c1 (centres unmarked) [Compound 10, 4-(((6-(3-((6-(1H-tetrazol-5-yl)-1-(thiazol-5-ylmethyl)-1H-benzo[d]imidazol-2-yl)methyl)-3-azabicyclo[4.1.0]heptan-6-yl)pyridin-2-yl)oxy)methyl)-3-fluorobenzonitrile] | –
53.2 | N#Cc1ccc(COc2cccc(C3CCN(Cc4nc5ccc(-c6nnn[nH]6)cc5n4Cc4cncs4)CC3)n2)c(F)c1 [Compound 11, 4-(((6-(1-((6-(1H-tetrazol-5-yl)-1-(thiazol-5-ylmethyl)-1H-benzo[d]imidazol-2-yl)methyl)piperidin-4-yl)pyridin-2-yl)oxy)methyl)-3-fluorobenzonitrile] | CLint scaled at 1 μM [1]: 19.7 ± 0.4 mL/min/kg; half-life at 1 μM [1]: 2.03 ± 0.041 h; CLint scaled at 1 μM [2]: 68.3 ± 2.52 mL/min/kg; half-life at 1 μM [2]: 0.812 ± 0.03 h
704 | N#Cc1ccc(COc2cccc(C3CCN(Cc4nc5ccc(-c6c[nH]c(=O)o6)cc5n4Cc4cncs4)CC3)n2)c(F)c1 [Compound 12, 3-fluoro-4-(((6-(1-((6-(2-oxo-2,3-dihydrooxazol-5-yl)-1-(thiazol-5-ylmethyl)-1H-benzo[d]imidazol-2-yl)methyl)piperidin-4-yl)pyridin-2-yl)oxy)methyl)benzonitrile] | –
50 | N#Cc1ccc(COc2cccc(C3CCN(Cc4nc5ccc(C(=O)NO)cc5n4C[C@@H]4CCO4)CC3)n2)c(F)c1 [Compound 14, (S)-2-((4-(6-((4-cyano-2-fluorobenzyl)oxy)pyridin-2-yl)piperidin-1-yl)methyl)-N-hydroxy-1-(oxetan-2-ylmethyl)-1H-benzo[d]imidazole-6-carboxamide] | –
> 10000 | N#Cc1ccc(COc2cccc(C3CCN(Cc4nc5ccc(C6(O)COC6)cc5n4Cc4cncs4)CC3)n2)c(F)c1 [Compound 15, 3-fluoro-4-(((6-(1-((6-(3-hydroxyoxetan-3-yl)-1-(thiazol-5-ylmethyl)-1H-benzo[d]imidazol-2-yl)methyl)piperidin-4-yl)pyridin-2-yl)oxy)methyl)benzonitrile] | –
2.68 | CC1(c2ccc(C#N)cc2F)Oc2cccc(C3CCN(Cc4nc5ccc(-c6nnn[nH]6)cc5n4C[C@@H]4CCO4)CC3)c2O1 (stereo partly drawn) [Compound 16, 3-fluoro-4-(2-methyl-4-(1-((1-(((S)-oxetan-2-yl)methyl)-6-(1H-tetrazol-5-yl)-1H-benzo [d]imidazol-2-yl)methyl)piperidin-4-yl)benzo[d][1,3]dioxol-2-yl)benzonitrile] | CLint scaled at 1 μM [1]: 6.22 ± 0.55 mL/min/kg; half-life at 1 μM [1]: 6.44 ± 0.571 h; CLint scaled at 1 μM [2]: 6.93 mL/min/kg; half-life at 1 μM [2]: 8 h
